The source of these data is US12187759B2, “TLR7 agonists” (Primmune Therapeutics, Inc., priority 2019, dated 2025).

In this assay the target is T1, human TLR8 (Homo sapiens, UniProt Q9NR97).
T1 construct: host or cells: HEK293
T1 sequence (Q9NR97 27-1041): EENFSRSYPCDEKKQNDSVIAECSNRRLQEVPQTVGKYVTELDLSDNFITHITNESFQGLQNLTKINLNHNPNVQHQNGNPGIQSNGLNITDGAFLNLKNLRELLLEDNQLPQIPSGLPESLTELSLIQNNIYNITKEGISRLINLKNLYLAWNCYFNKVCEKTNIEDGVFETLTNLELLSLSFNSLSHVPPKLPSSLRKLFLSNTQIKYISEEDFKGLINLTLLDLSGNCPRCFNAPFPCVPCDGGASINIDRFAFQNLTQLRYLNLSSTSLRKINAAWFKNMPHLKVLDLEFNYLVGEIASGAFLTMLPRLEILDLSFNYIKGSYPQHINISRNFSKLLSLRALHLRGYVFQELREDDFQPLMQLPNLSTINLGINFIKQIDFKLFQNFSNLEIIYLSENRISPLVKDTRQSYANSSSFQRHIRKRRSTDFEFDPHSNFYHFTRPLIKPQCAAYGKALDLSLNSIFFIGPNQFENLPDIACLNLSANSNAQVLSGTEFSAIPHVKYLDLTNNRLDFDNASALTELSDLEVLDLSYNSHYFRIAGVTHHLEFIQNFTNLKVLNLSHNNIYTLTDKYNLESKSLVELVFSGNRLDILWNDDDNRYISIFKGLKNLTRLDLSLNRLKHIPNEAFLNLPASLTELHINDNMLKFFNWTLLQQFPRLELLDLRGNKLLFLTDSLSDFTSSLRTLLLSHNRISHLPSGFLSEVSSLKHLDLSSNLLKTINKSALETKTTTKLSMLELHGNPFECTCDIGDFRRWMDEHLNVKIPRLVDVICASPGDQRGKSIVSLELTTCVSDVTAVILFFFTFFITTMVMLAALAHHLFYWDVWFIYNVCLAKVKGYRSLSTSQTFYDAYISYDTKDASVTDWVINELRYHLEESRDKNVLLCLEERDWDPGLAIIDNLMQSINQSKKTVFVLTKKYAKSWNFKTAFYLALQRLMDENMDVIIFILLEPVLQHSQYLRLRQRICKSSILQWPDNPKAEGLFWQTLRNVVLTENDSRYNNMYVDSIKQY
Put plainly: TLR8 reporter cell assay (HEK293 cells stably expressing human TLR8 with NF-κB-driven SEAP reporter). It counts as cell-based. Conditions: concentrations up to 500 μM; significant = >5% of ymax. An excerpt:
The engagement of TLRs by cognate ligands triggers downstream signaling cascades, leading to the activation of NF-κB and other transcription factors which initiate various immunomodulatory effects. The human embryonic kidney cell line, HEK293, is essentially non-responsive to TLR agonists, but ectopic expression of TLRs in these cells allows cognate agonists to activate endogenous NF-κB. Accordingly, the HEK293-TLR-NF-κB inducible reporter system is used to assay TLR agonists.
HEK293 cell lines stably expressing human TLR7 or TLR8 together with an NF-κB-driven-secreted alkaline phosphatase (SEAP) reporter were invented at InvivoGen (San Diego, California, USA) and used to assess compounds of the present invention for TLR7 and TLR8 agonist activities. Cells were seeded at 2-5×10^4 cells/well in 96 well plates (200 μl/well) and treated with various concentrations of compound (10 μl) for 15-24 hours. SEAP activity was determined by measuring OD at 650 nm; the media used to culture the cell lines contains the reagents required for SEAP detection. […]

In the case of `CC[C@H](O)[C@@H]1C[C@@H](O)[C@H](n2c(=O)sc3c(=O)[nH]c(N)nc32)O1` [Compound A, 5-amino-3-((2R,3R,5S)-3-hydroxy-5-((S)-1-hydroxypropyl)tetrahydrofuran-2-yl)thiazolo[4,5-d]pyrimidine-2,7(3H,6H)-dione, reference compound], the “activity in TLR8 reporter cell assay (% of ymax for TLR8 as measured at 28.5 μM resiquimod)” value is on record as > 5 % of ymax.
